Reference: patent US6328986A, “Method of deterring birds from plant and structural surfaces” (priority 2000, dated 2001)

Legend:
[1] = tested on: pigeons; test: Deterrence of pigeons from metal beam of sports arena (Example 6); type: in vivo; details: four ounces of 50% dispersion in 29 gallons of water
Text: (§1) In the following examples, the treating material was an aqueous dispersion of small particles of 9,10-anthraquinone containing 50% by weight of the anthraquinone and a small amount of surfactant.
Four ounces of a 50% by weight dispersion of anthraquinone in water were mixed with 29 gallons of water. The mixture was sprayed on a twenty foot section of a metal beam in the superstructure of a large sports arena. The treated beam section was open to the atmosphere and had become a roost for pigeons. Prior to the treatment, a section of walkway beneath the beam was cleaned weekly of 50-60 bird droppings. After more than 30 days following treatment of the beam with the above-described dilute anthraquinone dispersion, the pigeons had not returned to the roosting site.

[2] = tested on: crows; test: Deterrence of crows from flat roof (Example 4); type: in vivo; details: 50% by weight aqueous dispersion of 9,10-anthraquinone
Text: as §1
In Philadelphia Pa., a large number of crows, estimated at over two hundred thousand, regularly roosted on the flat roof of an industrial building.

[3] = tested on: brown-headed cowbirds; test: Avian perching deterrent test, brown-headed cowbirds (Example 7); type: in vivo, Molothrus ater
Text: Two (2) pens (10×20×6 feet) constructed of wood and aviary wire in a roofed outdoor aviary with a concrete floor were erected. At one end of each pen a water bowl and a food bowl containing the birds' maintenance diet was provided. On the morning of day 1, the test birds were transferred from their holding cages to each of the test pens. In each pen, there was one centrally located perch. At 0800 on the morning of day 2, this perch was removed and 2 test perches were installed, one in each of the corners at the end of the pen away from the food and water. For red-winged blackbirds (Agelaius phoeniceus) and brown-headed cowbirds (Molothrus ater), the perches were made of aluminum rod, 1.2 m long and 1.0 cm in diameter. For fish crows (Corvus ossigragus), the test perches were hollow stainless steel pipe, 1.2-m long and 2.25 cm in diameter. One of the test perches (randomly determined) was coated with a product containing 50% AQ as the active ingredient (the "repellent"), and the other was uncoated. […]
Test perches remained in the pens until 1500 on day 3 at which time the birds were captured, banded and released. […] The number of birds on each of the test perches were recorded at 1-min intervals. […]
(§2) To analyze responses of the birds to the perch treatment, the mean number of birds on each perch during each of the 6 30-min observation periods was used. The data are expressed as birds/min. […]

[4] = tested on: red-winged blackbirds; test: Avian perching deterrent test, red-winged blackbirds (Example 7); type: in vivo, Agelaius phoeniceus
Text: (§3) Two (2) pens (10×20×6 feet) constructed of wood and aviary wire in a roofed outdoor aviary with a concrete floor were erected. At one end of each pen a water bowl and a food bowl containing the birds' maintenance diet was provided. On the morning of day 1, the test birds were transferred from their holding cages to each of the test pens. In each pen, there was one centrally located perch. At 0800 on the morning of day 2, this perch was removed and 2 test perches were installed, one in each of the corners at the end of the pen away from the food and water. For red-winged blackbirds (Agelaius phoeniceus) and brown-headed cowbirds (Molothrus ater), the perches were made of aluminum rod, 1.2 m long and 1.0 cm in diameter. For fish crows (Corvus ossigragus), the test perches were hollow stainless steel pipe, 1.2-m long and 2.25 cm in diameter. One of the test perches (randomly determined) was coated with a product containing 50% AQ as the active ingredient (the "repellent"), and the other was uncoated. The repellent was applied to the perches with a paint brush 24-48 hours before the test. The repellent was easily applied and appeared somewhat like thinned paint. It covered the metal surfaces very well, with some streaking, and formed an opaque coating that was dry to the touch by the start of the trial. Approximately 7.5 g wet weight was applied to each crow perch and approximately 3.5 g to each blackbird/cowbird perch.
(§4) Test perches remained in the pens until 1500 on day 3 at which time the birds were captured, banded and released. The activity was videotaped in each pen during 3 30-min periods daily: 0800-0830, 1100-1130, and 1400-1430. The videotapes were reviewed to determine bird use of the perches. The number of birds on each of the test perches were recorded at 1-min intervals. Activity and locations of birds not on the perches was also noted. […]
as §2

[5] = tested on: seagulls; test: Deterrence of seagulls from flat roof (Example 3); type: in vivo; details: 50% by weight aqueous dispersion of 9,10-anthraquinone
Text: as §1
A large number of seagulls regularly roosted on the flat roof of an industrial building in Northern California.

[6] = tested on: geese; test: Deterrence of geese from loafing/roosting on grassy turf (Example 1); type: in vivo
Description: A formulation containing 50% wt., basis total formulation, of 9,10-anthraquinone dispersed in water with a small amount of surfactant and thickener was prepared and sprayed onto untreated grassy turf in an area where geese normally loaf or roost. One-third acre of turf was treated with areas of untreated turf bordering on both sides of the treated area. The dispersed anthraquinone particles were applied at a rate of 1 pint/acre (approximately 50 mg/m^2) on the treated area. […] The differences in the effects of the treated area versus the untreated area were easily noted. […] The geese were repelled from the treated area for approximately two weeks until the turf was cut. After cutting, another treatment was applied. The dispersed anthraquinone particles were applied at a rate of 1/2 pint/acre (approximately 25 mg/m^2) in the same manner of treating one strip of turf bordered by untreated turf. […] The test was continued for approximately two weeks. The test was concluded due to snow.

[7] = tested on: birds; test: Pen and field observations of bird behavior and adverse effects; type: in vivo
Text: Pen and field observations of bird behavior were made throughout the studies. In no situation were adverse effects or discomfort to the observed birds. In feeding on rice seeds, the birds squeezed the grain from the hull then ejected the hull from their mouths and ate only the inner grain.

[8] = tested on: fish crows; test: Avian perching deterrent test, fish crows (Example 7); type: in vivo, Corvus ossigragus
Text: as §3, §4, §2

[9] = LD50 in northern bobwhite quail; details: in vivo, separate study
[10] = tested on: geese; test: Deterrence of geese from 6.2 acre grassy test site (Example 2); type: in vivo
Description: A grassy test site having an area of 6.2 acres was selected within the grounds of a large campus style research complex having a substantial flock of geese in residence, which numbers 250-300 geese during the day and as many as 500 geese in the evening hours. In order to determine when daily observations should be made, the site was observed beforehand to determine the times during which the maximum number of geese were on the test site. Observations were conducted at the same time(s) each day in such manner that the behavior of the geese could be observed without disturbance. In addition, the number of droppings in selected areas of the site were counted each day, recorded and then removed from the test area by raking.
Following 10 days observation of the untreated test site, the above-described goose repellent composition was sprayed on the test area using a calibrated spray tank and a fan-shaped head sprayer. The liquid spray contained one gallon of repellent per 140 gallons of water and the rate of application was 2.77 pounds of AQ per acre of the mixture. In the absence of rain, the applied composition fully dried on the blades of grass within 24 hours.

[11] = tested on: pigeons; test: Deterrence of pigeons from steel beams of aircraft hangar (Example 5); type: in vivo; details: 50% by weight aqueous dispersion of 9,10-anthraquinone
Text: as §1
Pigeons regularly roosted on the exposed steel beams within a large aircraft hangar in Wilmington Del.

[12] = tested on: birds; test: Avian perching deterrent test, all 3 test species (Example 7); type: in vivo, red-winged blackbirds, brown-headed cowbirds, fish crows
Text: as §3
Test perches remained in the pens until 1500 on day 3 at which time the birds were captured, banded and released. The activity was videotaped in each pen during 3 30-min periods daily: 0800-0830, 1100-1130, and 1400-1430. The videotapes were reviewed to determine bird use of the perches. The number of birds on each of the test perches were recorded at 1-min intervals. Activity and locations of birds not on the perches was also noted. Five (5) groups of blackbirds and cowbirds and 4 groups of fish crows were tested. For blackbirds and cowbirds, there were 4 birds in each test group. For fish crows, we used 2 birds per pen.
To analyze responses of the birds to the perch treatment, the mean number of birds on each perch during each of the 6 30-min observation periods was used. The data are expressed as birds/min. A separate 2-way repeated measures analysis of variance for each of the 3 bird species was performed to test the null hypothesis of equal use between the two perches.

[13] = treated on day 10, following a heavy rain

## O=C1c2ccccc2C(=O)c2ccccc21 [9,10-anthraquinone]
[1]
  time following treatment during which pigeons had not returned to the roosting site: more than 30 days
[2]
  return of crows: the crows did not return
[3]; 50% AQ coating, SE=0.14, untreated perch 1.70 (SE=0.23), P=0.015
  use of the treated perch: 0.62 birds/min
[3]; day x perch interaction P=0.222
  bird use of each perch on the second day: bird use of each perch declined on the second day
[4]; 50% AQ coating, SE=0.06, untreated perch 0.86 (SE=0.10), P=0.067
  use of the treated perch: 0.41 birds/min
[4]; P=0.067
  use of the untreated perch relative to treated perch: more than twice
[4]; day x perch interaction P<0.001
  use of treated perch from day 1 to day 2: decrease use of the treated perch from day 1 to day 2
[5]
  use of treated roof by gulls: the gulls did not further use the surface for roosting
[6]; 1/2 pint/acre (approximately 25 mg/m^2), after cutting, about two weeks
  repellency: The same repellency was exhibited
[6]; 1 pint/acre (approximately 50 mg/m^2)
  behavior of geese that entered the treated area: immediately ceased eating, exited the treated area, entered a nearby pond and began to wash or rinse themselves
[7]; exposed to anthraquinone on food
  irritation of birds exposed on food: no sign of irritation
[7]; feeding on treated rice seeds
  effect of treated seeds on birds' behavior or pain: did not affect the birds' behavior or induce pain
[7]; grams of feed per day
  effect of consumption on feeding behavior: did not affect feeding behavior
[7]; upon completion of all studies
  death of test birds: No test birds died
[8]; 50% AQ coating, SE=0.08, untreated perch 1.28 (SE=0.08), P=0.014
  use of the treated perch: 0.64 birds/min
[8]; P=0.014
  use of the untreated perch relative to treated perch: approximately twice
[8]; day x perch interaction P=0.090
  use of treated perch from day 1 to day 2: decreased use of the treated perch from day 1 to day 2
[9]
  LD50: > 2000 mg/kg
[10]; 2.77 pounds of AQ per acre, before treatment average about 150 geese
  goose count, second day after application: zero
[10]; 2.77 pounds of AQ per acre, before treatment average about 150 geese (45 to 305)
  goose count, day after application: about 110 geese
[10]; following the treatment
  period for which number of geese remained quite low in treated area vs surrounding untreated areas: more than 3 months
[10]; in vivo
  birds' behavior after treatment of the test area: large numbers of birds were observed milling around, but not entering the treated area
[10]; treated on day 10
  number of geese, days 12-23: only a few geese were observed from time-to-time
[10]; treated on day 10 (over 300 geese), 2.77 pounds of AQ per acre
  number of geese, day 11: 109 geese
[10]; treated on day 10, 2.77 pounds of AQ per acre
  number of geese, day 12: zero
[10]; [13]
  goose count, day 23: 27 geese
  number of droppings, day 23: 13 droppings
[10]; treated on day 10, very low quantity of droppings
  number of geese, day 18: 18 geese
[11]
  return of pigeons: the pigeons did not return
[12]; 2-day trials, perch coated with repellent vs untreated
  preference of test species: each of the 3 test species displayed a preference for the untreated perch over the one coated with repellent
[12]; e.g. decreased activity, fluffed feathers, vomiting
  signs of illness on videotapes: no sign of illness was observed
[12]; in vivo
  discomfort on the treated perch: no indication that they were uncomfortable or bothered by the feel of the perch was observed
  initial reluctance to use the treated perches: No initial reluctance by birds to use the treated perches was observed
